Where a name gives a salt, the structure may show the parent alone. Read-outs that look alike come from different tables or passages of the source.
Legend:
OTC [1] = assay: OTC expression modulated by compounds (OTC/Geo Mean of HKs, DMSO = 1); format: cell-based, human; details: OTC expression
Method: Analysis of the fold changes in expression as measured by qRT-PCR were performed using the technique below. The control was DMSO, and the treatment was the selected compound (CPD). The internal control was GAPDH or B-Actin, and the gene of interest is the target. First, the averages of the 4 conditions were calculated for normalization: DMSO:GAPDH, DMSO:Target, CPD: GAPDH, and CPD:Target. Next, the ΔCT of both control and treatment were calculated to normalize to internal control (GAPDH) using (DMSO:Target)−(DMSO:GAPDH)=ΔCT control and (CPD:Target)−(CPD: GAPDH)=ΔCT experimental. Then, the ΔΔCT was calculated by ΔCT experimental−ΔCT control.

[2] = test system: multiple urea cycle-related genes; assay: RNA-seq, compounds that modulate multiple urea cycle-related genes; format: cell-based; details: primary human hepatocytes; for Up-regulated Genes: urea cycle-related genes significantly increased by the compound
CPS1 = assay: RNA-seq, CPS1 expression in compound-treated primary human hepatocytes; format: cell-based
ARG1 = assay: RNA-seq, ARG1 expression in compound-treated primary human hepatocytes; format: cell-based; details: RNA-seq, primary human hepatocytes, compounds that significantly increase ARG1 expression
OTC [3] = assay: RNA-seq, OTC expression in compound-treated primary human hepatocytes; format: cell-based
[4] = compound at 10 uM final concentration
[5] = RNA-seq, primary human hepatocytes, compounds that significantly increase NAGS expression

C[C@@H]1CCN(C(=O)CC#N)C[C@@H]1N(C)c1ncnc2[nH]ccc12 [Tofacitinib citrate] was tested, and the “Max Value (OTC/Geo Mean of HKs; DMSO = 1)” value (OTC [1]; [4]) was 1.6.

In the case of CCS(=O)(=O)c1cccc(-c2cc(C(=O)NC3CCN(C)CC3)c(C)c3[nH]c4ncc(C)cc4c23)c1 [TAK-901], the “Max Value (OTC/Geo Mean of HKs; DMSO = 1)” value (OTC [1]; [4]) is reported as 2.9.

CS[C@H]1SC[C@H]2C(=O)N(C)[C@@H](C(C)C)C(=O)OC[C@@H](NC(=O)c3cnc4ccccc4n3)C(=O)N[C@@H](C)C(=O)N(C)[C@@H]1C(=O)N(C)[C@@H](C(C)C)C(=O)OC[C@@H](NC(=O)c1cnc3ccccc3n1)C(=O)N[C@@H](C)C(=O)N2C [Echinomycin] was tested, and the “number of urea cycle genes whose expression was significantly up-regulated” value [2] was “six”.

With CC1(COc2ccc3c(c2)ncn3-c2ccc3cccc(N4CCC(N)CC4)c3n2)COC1 [Crenolanib] the “Max Value (OTC/Geo Mean of HKs; DMSO = 1)” value (OTC [1]; [4]) was 2.79, the “number of urea cycle genes whose expression was significantly up-regulated” value [2] was “four” and the “Up-regulated Genes” value [2] was “ASS1, ASL, OTC, ARG1”.

In the case of COCCn1c2c([n+](Cc3cnccn3)c1C)C(=O)c1ccccc1C2=O [YM155 (Sepantronium Bromide), Sepantronium Bromide], the “Max Value (OTC/Geo Mean of HKs; DMSO = 1)” value (OTC [1]; [4]) is reported as 3.16.

In the case of C=CC(=O)Nc1cccc(Nc2nc(Nc3ccc(N4CCN(C(C)=O)CC4)cc3OC)ncc2C(F)(F)F)c1 [CO-1686 (Rociletinib), Rociletinib], the “Fold change (Log 2) vs untreated” value (CPS1) is reported as 0.89 Log 2 and the “NAGS expression, Fold change (Log 2) vs untreated” value (NAGS) is reported as 1.05 Log 2.

For O=C(NCCCNc1nc(Nc2cccc(NC(=O)N3CCCC3)c2)ncc1I)c1cccs1 [BX795], the “Max Value (OTC/Geo Mean of HKs; DMSO = 1)” value (OTC [1]; [4]) was 2.57.

With NS(=O)(=O)C#Cc1ccccc1 [Pifithrin-u] the “ARG1 expression, Fold change (Log 2) vs untreated” value (ARG1) was 1.87 Log 2.

In the case of Cc1ccc(Nc2nccc(N(C)c3ccc4c(C)n(C)nc4c3)n2)cc1S(N)(=O)=O [Pazopanib], the “Max Value (OTC/Geo Mean of HKs; DMSO = 1)” value (OTC [1]; [4]) is reported as 1.48.

In the case of N#CCNC(=O)c1ccc(-c2ccnc(Nc3ccc(N4CCOCC4)cc3)n2)cc1 [Momelotinib], the “Max Value (OTC/Geo Mean of HKs; DMSO = 1)” value (OTC [1]; [4]) is reported as 3.52, the “number of urea cycle genes whose expression was significantly up-regulated” value [2] is reported as “three” and the “Up-regulated Genes” value [2] is reported as “CPS1, OTC, ARG1”.

In the case of C=CCNc1c(O)cc2c(O)c1C[C@@H](C)C[C@H](OC)[C@H](O)[C@@H](C)/C=C(\C)[C@H](OC(N)=O)[C@@H](OC)/C=C\C=C(/C)C(=O)N2 [Retaspimycin Hydrochloride], the “Max Value (OTC/Geo Mean of HKs; DMSO = 1)” value (OTC [1]; compound tested at 1 uM) is reported as 1.48.

CCn1c(=O)c(-c2ccc(-c3cncs3)cc2Cl)cc2cnc(Nc3ccc(N4CCN(C)CC4)cc3)nc21 [FRAX597] was tested, and the “number of urea cycle genes whose expression was significantly up-regulated” value [2] was “five”.

In the case of COc1cc2c(Oc3ccc(NC(=O)C4(C(=O)Nc5ccc(F)cc5)CC4)cc3F)ccnc2cc1OCCCN1CCOCC1 [Foretinib (GSK1363089), Foretinib], the “Max Value (OTC/Geo Mean of HKs; DMSO = 1)” value (OTC [1]; [4]) is reported as 4.09.

In the case of CC(C)c1cc(CNc2nc(Nc3cc(C4CC4)[nH]n3)cc(N3CCN(C)CC3)n2)on1 [XL228], the “Max Value (OTC/Geo Mean of HKs; DMSO = 1)” value (OTC [1]; [4]) is reported as 2.92.

COc1cc2nccc(Oc3ccc(NC(=O)Nc4cc(C)on4)c(Cl)c3)c2cc1OC [Tivozanib] was tested, and the “Max Value (OTC/Geo Mean of HKs; DMSO = 1)” value (OTC [1]; [4]) was 1.57.

Cc1cc(Nc2nc(N[C@@H](C)c3ncc(F)cn3)ncc2Cl)[nH]n1 [AZD1480] was tested, and the “Max Value (OTC/Geo Mean of HKs; DMSO = 1)” value (OTC [1]; [4]) was 1.46.

For C[C@]12C=CC(=O)C=C1CC[C@@H]1[C@@H]2C(=O)C[C@@]2(C)[C@H]1CC[C@]2(O)C(=O)CO [prednisone], the “Fold change (Log 2) vs untreated” value (CPS1) was 2.17 Log 2, the “NAGS expression, Fold change (Log 2) vs untreated” value (NAGS; [5]) was 1 Log 2 and the “ARG1 expression, Fold change (Log 2) vs untreated” value (ARG1) was 1.59 Log 2. The “number of urea cycle genes whose expression was significantly up-regulated” value [2] was “three” and the “Up-regulated Genes” value [2] was “CPS1, NAGS, ARG1”.

In the case of O=C(NCCCn1ccnc1)c1cc(-c2ccco2)on1 [SKL2001], the “NAGS expression, Fold change (Log 2) vs untreated” value (NAGS) is reported as 0.95 Log 2.

Cl.Cn1c(=O)c(Oc2ccc(F)cc2F)cc2cnc(NC3CCOCC3)nc21 [R1487 Hydrochloride] was tested, and the “Max Value (OTC/Geo Mean of HKs; DMSO = 1)” value (OTC [1]; [4]) was 1.64.

In the case of “FGF: Fibroblast Growth Factor-acidic (FGF-1); FGFR activator”, the “Fold change (Log 2) vs untreated” value (CPS1) is reported as 1.72 Log 2, the “ARG1 expression, Fold change (Log 2) vs untreated” value (ARG1) is reported as 1.24 Log 2 and the “Fold change (Log 2) vs untreated” value (OTC [3]) is reported as 0.56 Log 2. The “number of urea cycle genes whose expression was significantly up-regulated” value [2] was “three” and the “Up-regulated Genes” value [2] was “CPS1, OTC, ARG1”.

For Cc1ccc(-n2nc(C(C)(C)C)cc2NC(=O)Nc2ccc(OCCN3CCOCC3)c3ccccc23)cc1 [BIRB 796, Doramapimod], the “Max Value (OTC/Geo Mean of HKs; DMSO = 1)” value (OTC [1]; [4]) was 2.61.

With O=C(N[C@H]1CN2CCC1CC2)c1cc2cccc(Cl)c2s1 [EVP-6124 (hydrochloride) (encenicline), encenicline] the “NAGS expression, Fold change (Log 2) vs untreated” value (NAGS; [5]) was 0.75 Log 2.

For C=C1/C(=C\C=C2/CCC[C@]3(C)[C@@H]([C@H](C)CCCC(C)(C)O)CC[C@@H]23)C[C@@H](O)C[C@@H]1O [Calcitriol], the “NAGS expression, Fold change (Log 2) vs untreated” value (NAGS; [5]) was 1.2 Log 2.

Cn1c(=O)c(Oc2ccc(F)cc2F)cc2cnc(NC(CCO)CCO)nc21 [Pamapimod] was tested, and the “Max Value (OTC/Geo Mean of HKs; DMSO = 1)” value (OTC [1]; [4]) was 1.73.

For CNC(=O)c1ccc(C)c(-n2c(C)cc(OCc3ccc(F)cc3F)c(Br)c2=O)c1 [PH-797804], the “Max Value (OTC/Geo Mean of HKs; DMSO = 1)” value (OTC [1]; [4]) was 1.53.
